This note sets out measurements from paper PMC7733455, “A novel multistage antiplasmodial inhibitor targeting Plasmodium falciparum histone deacetylase 1” (Cell Discovery, 2020).

Data set [1] is described as follows: Liver microsome metabolism assay, human. In kind it is in vitro ADME. How it is done: Liver microsomes (0.5 mg/mL) were purchased from Corning. Ketanserin was selected as a positive control. The tested compounds were first dissolved in DMSO to a concentration of 10 mM and then diluted to 0.5 mM with acetonitrile. Liver microsome buffer was used to dilute the compounds to a working concentration of 1.5 µM, 30 µL of which was mixed with 15 µL of 6 mM NADPH at 37 °C. At 0, 5, 15, 30, and 45 min after incubation, 135 µL of acetonitrile was added to quench the reaction. The mixture was shaken on a vortex mixer (IKA, MTS 2/4) for 10 min at 600 rpm/min and then centrifuged at 5594× g for 15 min (Thermo Multifuge×3R). The supernatant was diluted 1:1 into distilled water, and analyzed by LC-MS/MS.
(In general: Liver microsomes are a subcellular fraction often used to study metabolism.)

A further data set deals with 3D7^HDA1-TY1. Put plainly: Sensitivity of transgenic parasites to JX21108, 3D7^HDA1-TY1. The data set is classed as cell-based. The note with it: Plasmodium falciparum, 3D7, 4 h, read-out: EC50 for 3D7^HDA1-TY1. The protocol:
(§1) Highly synchronized schizont-stage parasites were prepared and treated as described above, with adjustments. […] After washing, parasites were cultured in new CM for another 68 h. Parasite growth was monitored by SYBR Green I staining, as described above. The EC50 was calculated by GraphPad Prism.

The next data set relates to P. falciparum GB4. Description: 3-day SYBR Green I GIA, strain GB4. In kind it is cell-based. The note with it: Plasmodium falciparum; GB4 resistant to chloroquine; read-out: Resistant isolates EC50, GB4. The protocol:
(§2) A 3-day SYBR Green I inhibition EC50 assay was performed as described previously. Briefly, highly synchronized ring-stage parasites by 5% sorbitol (1% parasitemia and 2% hematocrit) were incubated in a 96-well plate with compounds in a total volume of 200 μL. […] The parasites were cultured for 72 h before SYBR Green I staining as described above. The EC50 was calculated by GraphPad Prism. DHA was used as a positive control, and the final concentration of DMSO was 1%.

The subject of another data set is P. falciparum 3D7. Put plainly: 3-day SYBR Green I growth inhibition assay (GIA), strain 3D7. The note with it: 3-day SYBR Green I GIA, drug-sensitive strain 3D7, read-out: Antiplasmodial activity EC50, 3D7. In kind it is cell-based, Plasmodium falciparum. In short, it runs like this:
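Sorbitol-synchronized ring-stage parasites at 1% parasitemia and 2% hematocrit, cultured 72 h with compounds at 1% DMSO final. Growth read by SYBR Green I staining. EC50 from curve fitting.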

A further data set deals with 3D7^HDAC1-glmS. Put plainly: Sensitivity of transgenic parasites to JX21108, 3D7^HDAC1-glmS. The data set is classed as cell-based, Plasmodium falciparum. How it is done:
as §1

A further data set concerns P. falciparum C2A. Put plainly: 3-day SYBR Green I GIA, strain C2A. The conditions noted are these: Plasmodium falciparum, read-out: Resistant isolates EC50, C2A. The data set is classed as cell-based. How it is done: as §2
The target in a further data set is T1, hHDAC8 (Homo sapiens, UniProt Q9BY41).
T1 construct: purchased BPS Bioscience 50008
Put plainly: Human HDAC inhibition assay, hHDAC8. The data set is classed as biochemical. The note with it: performed only once; read-out: Inhibitory Activity IC50, hHDAC8. How it is done:
(§3) SAHA and suramin were used as positive controls. The tested compounds were dissolved into 20 mM stock in 100% DMSO. […] Ten microliters of trypsin and Ac-peptide substrate/Tris buffer solution were added to start the reaction, followed by a 1-h incubation at room temperature for HDACs 1–3 and 6. Ten microliters of Ac-peptide substrate/Tris buffer solution was added to start the reaction, followed by a 4-h incubation at room temperature and a further 2-h incubation with trypsin solution for HDAC8 and Sirt 2. […] This experiment was performed only once.

For data set [2], the system named is drug-sensitive and multidrug-resistant strains of P. falciparum. Description: 3-day SYBR Green I GIA, summary over several strains. The data set is classed as cell-based. The conditions noted are these: Plasmodium falciparum. The protocol:
as §2

A further data set addresses T2, hHDAC2 (Homo sapiens, UniProt Q92769).
T2 construct: purchased BPS Bioscience 5002
Description: Human HDAC inhibition assay, hHDAC2. In kind it is biochemical. The note with it: performed only once; read-out: Inhibitory Activity IC50, hHDAC2. How it is done:
as §3

The target of a further data set is T3, hHDAC1 (Homo sapiens, UniProt Q13547).
T3 construct: purchased BPS Bioscience 50058
Description: Human HDAC inhibition assay, hHDAC1. The data set is classed as biochemical. The note with it: performed only once; read-out: Inhibitory Activity IC50, hHDAC1. How it is done: as §3

Another data set has as its system P. falciparum CP286. Description: 3-day SYBR Green I GIA, strain CP286. The conditions noted are these: Plasmodium falciparum; CP286 resistant to pyrimethamine and chloroquine; read-out: Resistant isolates EC50, CP286. In kind it is cell-based. The protocol: as §2
Data set [3] relates to P. falciparum NF54 stage IV gametocytes. Put plainly: In vitro gametocyte inhibition assay, stage IV. In kind it is cell-based, Plasmodium falciparum. The note with it: NF54 luciferase line, 48 h exposure. The protocol:
To test the activities of JX21108 against different gametocyte stages, the P. falciparum producer NF54^p230p-luc was utilized, as described previously. […] Luciferase intensity based on luciferase expression was detected as described above. The EC50 was calculated by GraphPad Prism. DMSO (1%) was used as a negative control.

For data set [4], the system named is P. berghei-ANKA-GFP-luc sporozoites. Put plainly: In vivo liver-stage parasite inhibition assay. Further details: species or system Plasmodium berghei in BALB/c mice. The protocol: An in vivo liver-stage parasite inhibition assay was conducted as described previously[68],[69]. Briefly, five female BALB/c mice (6 weeks, 18 g) per group were infected with 5000 P. berghei-ANKA-GFP-luc sporozoites by i.v injection followed immediately by i.v.-administered JX21108 at a single dose of 30 mg/kg or 60 mg/kg (day 0). The β-cyclodextrin was used as a blank control. For fluorescence detection, 3 mg of D-luciferin sodium (Sinochrome BC-220–10) in 100 μL of ddH2O was i.p. injected into each mouse. The fluorescence signals were visualized by an IVIS Lumina series (PerkinElmer) on days 1–4, 6, and 8 after infection. All experimental procedures followed the National Institutes of Health Guide for the Care and Use of Laboratory Animals, as well as the guidelines of the Animal Welfare and Committee of Institut Pasteur of Shanghai, Chinese Academy of Science, IACUC issue No. A2018009.

Like-named read-outs stand apart in the source and are kept apart here.

T1 sequence (Q9BY41 whole entry): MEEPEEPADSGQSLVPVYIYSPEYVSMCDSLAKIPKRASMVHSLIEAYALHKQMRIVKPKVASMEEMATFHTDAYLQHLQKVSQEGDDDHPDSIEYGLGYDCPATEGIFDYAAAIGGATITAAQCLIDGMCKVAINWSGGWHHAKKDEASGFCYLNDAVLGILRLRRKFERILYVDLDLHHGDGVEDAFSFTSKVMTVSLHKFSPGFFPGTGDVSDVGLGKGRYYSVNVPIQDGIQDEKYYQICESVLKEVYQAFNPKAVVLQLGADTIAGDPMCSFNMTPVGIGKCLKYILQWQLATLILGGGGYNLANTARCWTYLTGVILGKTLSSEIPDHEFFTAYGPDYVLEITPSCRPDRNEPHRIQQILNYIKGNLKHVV
T2 sequence (Q92769 whole entry): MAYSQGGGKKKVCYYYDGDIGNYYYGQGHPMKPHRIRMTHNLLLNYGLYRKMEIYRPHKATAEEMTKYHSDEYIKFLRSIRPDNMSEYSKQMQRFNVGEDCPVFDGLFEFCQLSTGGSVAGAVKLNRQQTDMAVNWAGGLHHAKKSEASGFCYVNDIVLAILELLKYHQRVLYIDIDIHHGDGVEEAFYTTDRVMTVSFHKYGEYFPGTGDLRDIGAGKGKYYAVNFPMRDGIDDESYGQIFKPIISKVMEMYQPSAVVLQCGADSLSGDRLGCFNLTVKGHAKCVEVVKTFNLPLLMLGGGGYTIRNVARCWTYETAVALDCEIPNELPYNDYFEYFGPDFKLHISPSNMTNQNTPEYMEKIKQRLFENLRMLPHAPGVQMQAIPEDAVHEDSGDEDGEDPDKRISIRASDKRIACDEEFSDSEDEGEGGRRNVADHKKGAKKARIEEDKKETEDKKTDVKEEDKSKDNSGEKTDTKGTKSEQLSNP
T3 sequence (Q13547 whole entry): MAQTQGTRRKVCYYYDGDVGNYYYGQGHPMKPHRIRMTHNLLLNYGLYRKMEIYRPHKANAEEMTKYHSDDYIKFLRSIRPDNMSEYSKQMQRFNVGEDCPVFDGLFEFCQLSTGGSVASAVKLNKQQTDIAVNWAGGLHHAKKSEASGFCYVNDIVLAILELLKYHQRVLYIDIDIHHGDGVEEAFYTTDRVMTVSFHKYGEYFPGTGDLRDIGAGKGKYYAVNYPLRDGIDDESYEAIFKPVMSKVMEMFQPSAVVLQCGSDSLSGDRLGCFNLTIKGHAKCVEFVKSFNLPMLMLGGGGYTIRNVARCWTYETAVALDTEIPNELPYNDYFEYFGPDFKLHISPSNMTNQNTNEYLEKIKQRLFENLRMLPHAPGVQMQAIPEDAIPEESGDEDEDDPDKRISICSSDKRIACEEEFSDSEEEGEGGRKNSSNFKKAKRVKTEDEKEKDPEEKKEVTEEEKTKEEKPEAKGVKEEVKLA

By EC50 is commonly meant the concentration that produces a half-maximal response. A word on the IC50: it is the concentration that inhibits the measured activity by half. On to `Cl.Cn1cc(CN2CCC3(CCN(c4ncc(C(=O)NO)cn4)C3)C2)c2cc(C#N)ccc21` (centres unmarked) [JX21108], for which the “CL in liver microsomes” value in data set [1] is 3.34 mL/min/kg. Further, the half-life at 1 µM in data set [1] (human liver microsomes, read-out: T1/2 in liver microsomes) was 8.68 h. The EC50 with 3D7^HDA1-TY1 stood at 330 ± 57 nM; with P. falciparum GB4, 2.4 ± 0.6 nM; with P. falciparum 3D7, 3.57 ± 0.06 nM; with P. falciparum 3D7 (Plasmodium falciparum, 3D7, 72 h), 3.6 nM; with 3D7^HDAC1-glmS (Plasmodium falciparum, 3D7, 4 h, read-out: EC50 for 3D7^HDAC1-glmS) it was 20.5 ± 6.95 nM; in the data set on P. falciparum C2A, 2.9 ± 0.7 nM. The EC50 is 2 to 8 nM in [2] (three strains tested, read-out: EC50 values on strains GB4, C2A and CP286); 2 to 7 nM in data set [2] (variety of geographically representative strains, read-out: EC50 against drug-sensitive and multidrug-resistant strains of P. falciparum); 7 ± 0.6 nM with P. falciparum CP286; 5.9 ± 1.97 nM in data set [3]; 5.85 ± 1.97 nM in data set [3] (Plasmodium falciparum, NF54, 48 h). Moreover, the “shift in sensitivity on PfHDAC1 KD” value in the data set with 3D7^HDAC1-glmS (3D7^HDAC1-glmS vs 3D7^HDAC1-TY1) is listed as 5.5 fold. Besides, the figures for the IC50 at hHDAC8, at hHDAC2 and on hHDAC1 were 62 nM, 4.6 nM and 1.8 nM, respectively. In addition, the “effect on liver infection or subsequent blood-stage P. berghei infection” value in data set [4] (single 30 mg/kg dose i.v.) is given as “did not produce significant effects”. Besides, the “liver infection (bioluminescence)” value in data set [4] (single 60 mg/kg dose i.v., 2 dpi) is listed as “did not show signs of liver infection”. Further, the blood-stage infection result in data set [4] (single 60 mg/kg dose i.v., until 8 dpi) is “nor did the treated mice show any blood-stage infection”.
